Data: patent US8501166B2, “Pyrimidinyl indole compounds” (Hutchison Medipharma Limited, priority 2010, dated 2013)
Structures can show the parent of a compound that is named as a salt. Where two headings read alike, the source gives them in different places.

Columns and labels:
[1] = tested on: LPS-induced joint TNFα production; test: LPS-induced acute joint inflammation in rat; type: in vivo, Wistar rats; conditions: oral 1 h before intra-articular LPS 10 μg
Description: To further investigate the effects of IKKβ inhibitor on mechanism-relevant joint inflammation, the compound is screened for its ability to inhibit the LPS-induced joint acute inflammation in rat essentially as describe by a method reported in the literature (Matsukawa A, Yoshimura T, Miyamoto K, Ohkawara S, Yoshinaga M. Lab Invest. 1997, 76(5):629-38). Briefly, Wistar rats (female, body weight 150 g-170 g) are used in the experiments Animals (8/group) are given 1 to 100 mg/kg of the test compound [suspension in 35% Solutol (Macrogol 15 Hydroxystearate) & 60% PEG400 & 5% PG (propylene glycol)] or vehicle by oral gavage at 1 h prior to intra-articular (i.a.) administration of 10 μg of LPS in 10 μL of saline on left hind knee of each rat, using a 26-gauge needle. The right hind knee of each rat is injected with 10 μL of saline as a control. Two hour after LPS injection, each […] of the rats is lavaged with 100 μL of saline. The synovial fluids are collected and stored at -80° C. The […] is diluted 2 fold with the dilution buffer and 50 μL of the diluted sample is used for the measurement of TNFα levels using R&D System ELISA Kit based on the general Kit protocol. The plate is read on a SPECTRAMAX® M2e Plus Plate Reader and TNFα levels are analyzed using a standard curve. The drug levels are also measured by liquid chromatography-tandem mass spectrometry (LC-MS-MS).

[2] = tested on: collagen induced arthritis; test: Collagen induced arthritis (CIA) model in mice; type: in vivo, DBA/1 mice
Description: Previous studies have shown that small molecular inhibitors of IKKβ are efficacious in a mouse CIA model (Podolin, P L et al, J. Pharm. Exp. Ther., 2005, 312: 373-381). In addition, mice with T cells expressing a dominant—negative form of IkBa are protected from developing CIA (Seetharaman R. et al. J. Immunol. 1999: 163, 1577-1583). […] Therefore a compound of the present invention is tested in the collagen induced arthritis (CIA) model in mice essentially as described in a method reported in the literature (Rosloniec E F, Cremer M, Kang A, Myers L K. Current Protocols in Immunology. 1996, 15.5.1-15.5.24).
Briefly, DBA/1 mice are immunized intradermally with chicken collagen II (200 μg/mouse) emulsified with Freund's complete adjuvant (CFA, Sigma, US) on day 0 and day 21 to elicit arthritis. The severity of arthritis is assessed using a visual scoring system, in which each paw is graded from 0 to 4 (0=normal, 4=severe swelling of the entire paw). The hind joint thicknesses are measured with a micrometer. The testing compound is orally administered for either prophylactic or therapeutic purposes. For the prophylactic study, the testing compound is orally administered twice daily from day 1 to day 42. For the therapeutic study, the drug treatment is started after the onset of arthritis, which usually occurs within one week of 2nd immunization. Mice are treated with the drug for 21 days. […]

BxPC-3 cells = test: Cell viability test, combination study, BxPC-3; type: cell-based, human; conditions: for inhibition at 2.5 µM / inhibition at 25 µM: Homo sapiens, BXPC-3, 72 h, read-out: Ave. Inhibition rate
Description: To evaluate biological activity of a compound in vitro, the cell viability test is applied, in which, IKKβ receptor plays an important role in cell survival and proliferation. Once the IKKβ pathway is blocked by inhibitors, a cell can go through apoptosis or death. The cell viability test provides information on cell survival after treatment with IKK inhibitors.
BxPC-3 cells (ATCC #CRL-1687; human pancreatic cancer cell line) are grown in Roswell Park Memorial Institute (RPMI) 1640 media (Gibco #A10491-01) supplemented with 10% fetal bovine serum (FBS) (Gibco #10099-141). Skov3-luc cells (ATCC, human ovarian carcinoma cell line) are grown in McCoy's 5a medium (Gibco#16600) supplemented with 10% FBS (Gibco#10099-141). For compound testing, BxPc-3 and Skov3-Luc cells are seeded at 2000 and 5000 cells/well respectively in 100 μL of corresponding media specified above for each cell line in 96-well plates 20 h prior to treatment. Cells are treated with a test compound at eight different concentrations in the presence of 0.5% DMSO for 72 h. Cell death in each well is determined by the addition of 20 μL of the One Solution Reagent (CELLTITER 96® AQueous One Solution Cell Proliferation Assay, Promega #G3580). After 2-4 h of incubation at 37° C., optical densities at 492 nm are measured with a microplate reader Inhibition of cell viability is determined by comparison to the control cells treated in the absence of a test compound.
For the combination study of the compound with other antitumor agents, BxPc-3 and Skov3-Luc cells are seeded at 2000 and 5000 cells/well respectively in 100 μL corresponding media specified above for each cell line in 96-well plates 20 h prior to the treatment. The cells are treated with the test compound at a number of concentrations for 30 minutes and then exposed to 5 ng/mL TNFα or 0.15-0.6 uM of VCR (vincristine sulfate) for an additional 72 hours. Cell death in each well is determined by the addition of 20 μL of the One Solution Reagent (CELLTITER 96® AQueous One Solution Cell Proliferation Assay, Promega #G3580). After 2-4 h of incubation at 37° C., optical densities at 492 nm are measured with a microplate reader Inhibition of cell viability is determined by comparison to the control cells treated in the absence of a test compound. For example, the results of the combination study with Example 1 are specially detailed in Table 2.

## Cl.O=C(NC1CC1)c1cccc2[nH]c(-c3nc(N[C@@H]4CCC[C@H]4O)ncc3Cl)cc12 [Example 2, 2-{5-Chloro-2-[(1R,2R)-2-hydroxycyclopentylamino]pyrimidin-4-yl}-N-cyclopropyl-1H-indole-4-carboxamide hydrochloride]
[1]
  ED50: 23.4 mg/kg
[2]; 10 and 30 mg/kg bid (20 and 60 mg/kg/day)
  joint swelling and arthritis scores: Statistically significant inhibition of joint swelling and reduction of arthritis scores
[2]; 1008 h, mouse CIA, oral bid for 42 days, read-out: ED50, joint swelling and arthritis scores
  ED50: 4.3 mg/kg

## O=C(NC1CC1)c1cccc2[nH]c(-c3nc(N[C@@H]4CCC[C@@H]4O)ncc3Cl)cc12 [Example 1, 2-{5-Chloro-2-[(1R,2S)-2-hydroxycyclopentylamino]pyrimidin-4-yl}-N-cyclopropyl-1H-indole-4-carboxamide hydrochloride]
BxPC-3 cells; Example 1 25 μM alone, 72 h, hydrochloride
  Ave. Inhibition rate: 11.53%
BxPC-3 cells; Example 1 2.5 μM alone
  inhibition at 2.5 µM: -16.5%
BxPC-3 cells; Example 1 25 μM alone
  inhibition at 25 µM: 11.5%
BxPC-3 cells; TNFα 5 ng/mL + Example 1 2.5 μM
  inhibition at 2.5 µM: 87.8%
BxPC-3 cells; Vincristine 0.15 μM + Example 1 25 μM
  inhibition at 25 µM: 80.2%
